Test system: NOMO1
Experiment: cell viability relative to DMSO control; higher = less cytotoxic
Conditions: 48 h
In short: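 Leukemia cells (NOMO1 or SEM, 500 cells/well; P12-Ichikawa, 1000 cells/well) were seeded in 5 μl in 1536-well plates after at least four passages of adaptation to each medium. They received library compounds in DMSO by pin dosing, 11 threefold points from 47 μM to 0.79 nM. Luminescence with CellTiter-Glo One was read after 48 h at 37°C. Viability is stated per plate relative to DMSO wells, with cell-free wells as background.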

[1] = HPLM + 10% dialyzed FBS, 0.000781 µM
[2] = HPLM + 10% dialyzed FBS, 0.00234 µM
[3] = HPLM + 10% dialyzed FBS, 0.00702 µM
[4] = HPLM + 10% dialyzed FBS, 0.0211 µM
[5] = HPLM + 10% dialyzed FBS, 0.0632 µM
[6] = HPLM + 10% dialyzed FBS, 0.19 µM
[7] = HPLM + 10% dialyzed FBS, 0.569 µM
[8] = HPLM + 10% dialyzed FBS, 1.71 µM
[9] = HPLM + 10% dialyzed FBS, 5.12 µM
[10] = HPLM + 10% dialyzed FBS, 15.4 µM
[11] = HPLM + 10% dialyzed FBS, 46.1 µM
[12] = RPMI 5 mM glucose + 10% dialyzed FBS, 0.000781 µM
[13] = RPMI 5 mM glucose + 10% dialyzed FBS, 0.00234 µM
[14] = RPMI 5 mM glucose + 10% dialyzed FBS, 0.00702 µM
[15] = RPMI 5 mM glucose + 10% dialyzed FBS, 0.0211 µM
[16] = RPMI 5 mM glucose + 10% dialyzed FBS, 0.0632 µM
[17] = RPMI 5 mM glucose + 10% dialyzed FBS, 0.19 µM
[18] = RPMI 5 mM glucose + 10% dialyzed FBS, 0.569 µM
[19] = RPMI 5 mM glucose + 10% dialyzed FBS, 1.71 µM
[20] = RPMI 5 mM glucose + 10% dialyzed FBS, 5.12 µM
[21] = RPMI 5 mM glucose + 10% dialyzed FBS, 15.4 µM
[22] = RPMI 5 mM glucose + 10% dialyzed FBS, 46.1 µM
[23] = RPMI 5 mM glucose + 10% FBS, 0.000781 µM
[24] = RPMI 5 mM glucose + 10% FBS, 0.00234 µM
[25] = RPMI 5 mM glucose + 10% FBS, 0.00702 µM
[26] = RPMI 5 mM glucose + 10% FBS, 0.0211 µM
[27] = RPMI 5 mM glucose + 10% FBS, 0.0632 µM
[28] = RPMI 5 mM glucose + 10% FBS, 0.19 µM
[29] = RPMI 5 mM glucose + 10% FBS, 0.569 µM
[30] = RPMI 5 mM glucose + 10% FBS, 1.71 µM
[31] = RPMI 5 mM glucose + 10% FBS, 5.12 µM
[32] = RPMI 5 mM glucose + 10% FBS, 15.4 µM
[33] = RPMI 5 mM glucose + 10% FBS, 46.1 µM

Row | SMILES | cell viability [1] [%] | cell viability [2] [%] | cell viability [3] [%] | cell viability [4] [%] | cell viability [5] [%] | cell viability [6] [%] | cell viability [7] [%] | cell viability [8] [%] | cell viability [9] [%] | cell viability [10] [%] | cell viability [11] [%] | cell viability [12] [%] | cell viability [13] [%] | cell viability [14] [%] | cell viability [15] [%] | cell viability [16] [%] | cell viability [17] [%] | cell viability [18] [%] | cell viability [19] [%] | cell viability [20] [%] | cell viability [21] [%] | cell viability [22] [%] | cell viability [23] [%] | cell viability [24] [%] | cell viability [25] [%] | cell viability [26] [%] | cell viability [27] [%] | cell viability [28] [%] | cell viability [29] [%] | cell viability [30] [%] | cell viability [31] [%] | cell viability [32] [%] | cell viability [33] [%]
1 | COc1ccc2c(c1)c(CC(=O)OCC(=O)O)c(C)n2C(=O)c1ccc(Cl)cc1 | 123 | 131 | 122 | 136 | 117 | 131 | 128 | 114 | 123 | 120 | 123 | 112 | 137 | 110 | 142 | 117 | 133 | 120 | 135 | 115 | 123 | 106 |  |  |  |  |  |  |  |  |  |  | 
2 | CN(C)CCN(C)C(=O)c1ccc(NC(=O)Nc2ccc(-c3nc(N4CCOCC4)c4ccn(CC(F)(F)F)c4n3)cc2)cc1 |  |  |  |  |  |  |  |  |  |  |  | 116 | 113 | 113 | 121 | 92.6 | 78.5 | 81.7 | 67.4 | 72.5 | 68.1 | 69.5 | 101 | 115 | 117 | 130 | 109 | 91.2 | 74.5 | 70 | 75.7 | 78.7 | 81.9
3 | NC(=O)c1cccc2nc(-c3ccc([C@H]4CCCN4)cc3F)[nH]c12 | 112 | 120 | 108 | 133 | 116 | 131 | 128 | 106 | 119 | 107 | 81.5 | 102 | 112 | 117 | 121 | 118 | 114 | 132 | 130 | 120 | 109 | 81.3 | 95.8 | 95.4 | 104 | 114 | 125 | 107 | 117 | 107 | 101 | 105 | 89.6
4 | CC(C)c1cnn2c(NCc3ccccc3)cc(NCCCCCCN)nc12 |  |  |  |  |  |  |  |  |  |  |  | 115 | 116 | 104 | 125 | 119 | 118 | 114 | 107 | 110 | 101 | 110 | 115 | 107 | 117 | 121 | 109 | 122 | 112 | 114 | 116 | 106 | 101
5 | O=C(Nc1ncc(-c2cc(C(F)F)nn2-c2c(Cl)cccc2Cl)s1)C1CC1 | 120 | 107 | 120 | 117 | 132 | 138 | 137 | 99.1 | 44.4 | 62.8 | 49 |  |  |  |  |  |  |  |  |  |  |  |  |  |  |  |  |  |  |  |  |  | 
6 | Cn1cc(/C=C2\C(=O)Nc3cccnc32)c2ccccc21 | 118 | 138 | 122 | 138 | 157 | 138 | 138 | 146 | 126 | 123 | 98.8 | 117 | 118 | 117 | 132 | 130 | 140 | 141 | 147 | 128 | 78.2 | 84.3 | 113 | 119 | 130 | 129 | 143 | 123 | 124 | 142 | 125 | 77.1 | 89.3
7 | Cc1[nH]c(/C=C2\C(=O)Nc3ccccc32)c(C)c1CCC(=O)O | 92.3 | 101 | 108 | 114 | 113 | 106 | 99.9 | 118 | 105 | 51.3 | 23.8 | 97 | 118 | 96.1 | 98.1 | 113 | 106 | 102 | 109 | 103 | 101 | 22.7 | 95.9 | 112 | 108 | 114 | 115 | 123 | 111 | 104 | 110 | 58.7 | 18.4
8 | Cc1cc(Nc2nc(N[C@@H](C)c3ccc(F)cc3)c(C#N)cc2F)n[nH]1 | 108 | 101 | 109 | 113 | 93.9 | 99.9 | 114 | 92.3 | 36.4 | 68.8 | 58.6 | 79.8 | 104 | 104 | 103 | 96.8 | 97.5 | 98.7 | 91.1 | 28.3 | 36.1 | 55 | 88.9 | 94.7 | 91.2 | 99.2 | 90.9 | 81.2 | 89.5 | 83 | 20.7 | 36.1 | 45.5
9 | C[C@]12CC[C@@H]3c4ccc(O)cc4CC[C@H]3[C@@H]1C[C@@H](O)[C@@H]2O |  |  |  |  |  |  |  |  |  |  |  | 115 | 121 | 129 | 125 | 120 | 110 | 114 | 113 | 110 | 105 | 95.9 | 116 | 114 | 106 | 114 | 114 | 107 | 123 | 117 | 118 | 118 | 115
10 | CN1\C(=C(\O)C2=C(C=CC=C2)[S+]1([O-])=O)C(=O)NC3=CC=CC=N3 | 107 | 138 | 110 | 122 | 122 | 129 | 105 | 107 | 102 | 58.2 | 29.1 | 87.5 | 103 | 100 | 100 | 113 | 99.2 | 116 | 94.6 | 99.6 | 108 | 35.3 | 109 | 101 | 108 | 116 | 117 | 123 | 113 | 109 | 123 | 43.9 | 21.2
11 | Oc1cccc(-c2nc(N3CCOCC3)c3oc4ncccc4c3n2)c1 | 121 | 92.1 | 117 | 91.8 | 92.3 | 107 | 115 | 102 | 129 | 96.4 | 103 | 120 | 106 | 125 | 98.9 | 110 | 102 | 80.4 | 77.7 | 109 | 106 | 126 | 109 | 113 | 116 | 123 | 112 | 108 | 104 | 87.4 | 128 | 124 | 122
12 | COc1ncnc(N[S+](=O)([O-])c2ccc(N)cc2)c1OC | 111 | 111 | 104 | 122 | 102 | 123 | 97.6 | 61.4 | 31.5 | 8.89 | 7.76 | 103 | 115 | 97.2 | 110 | 117 | 119 | 123 | 108 | 70.9 | 36.7 | 19 | 97.7 | 107 | 107 | 98 | 101 | 112 | 103 | 106 | 51.3 | 24 | 13.5
13 | CC[C@H](C)C(=O)O[C@H]1C[C@H](O)\C=C2\C=C/[C@H](C)[C@H](CC[C@@H](O)C[C@@H](O)CC(O)=O)[C@@H]12 | 123 | 116 | 118 | 119 | 125 | 123 | 110 | 101 | 103 | 104 | 84.1 | 105 | 110 | 117 | 104 | 101 | 110 | 112 | 101 | 103 | 107 | 99 | 114 | 111 | 118 | 106 | 117 | 126 | 116 | 116 | 104 | 105 | 102
14 | CC1=C(CC(=O)O)c2cc(F)ccc2/C1=C\c1ccc([S+](C)[O-])cc1 (stereo unspecified) | 121 | 122 | 106 | 123 | 125 | 107 | 140 | 99.6 | 103 | 101 | 113 | 128 | 119 | 119 | 123 | 139 | 139 | 119 | 109 | 104 | 107 | 99.6 | 125 | 118 | 105 | 132 | 115 | 110 | 112 | 113 | 114 | 110 | 112

Source: the supplement of paper PMC11451515
